Here are results for 1 molecule from patent US20260184667A1, “CGMP-COMPLIANT AUTOMATED [18F]FSPG PRODUCTION FOR CLINICAL EXAMINATION” (BOARD OF REGENTS, THE UNIVERSITY OF TEXAS SYSTEM, priority 2022, published 2026).

Each structure is given as a SMILES string.

Data set [1] can be described thus: Radiochemical purity on storage at room temperature (analytical reverse phase-HPLC). Type of data set: physicochemical. The settings on record: stored at room temperature, for 5 hours after end of synthesis (FIG. 3). As for the experimental part:
The radiochemical purity of the [^18F]FSPG composition was tested at the end of synthesis and up to 5 hours after being stored at room temperature. Analytical reverse phase-HPLC was performed on an Agilent 1260 HPLC system equipped with a 1200 Series Diode Array Detector and a Raytest GABI Star NaI (TL) scintillation detector. The following process parameters were used: • Column: Phenomenex Luna C-18 (2) 250 mm×4.6 mm (5 μm) • Mobile Phase A: 40 μM aqueous disodium phosphate • Mobile Phase B: Acetonitrile/Methanol/Water (45:45:10) (% w/v) • Flow rate: 1.5 ml/min • Gradient: • Initial: 100% Mobile Phase A, 0% Mobile Phase B • 2 min: 96% Mobile Phase A, 4% Mobile Phase B • 5 min: 88% Mobile Phase A, 12% Mobile Phase B • 15 min: 88% Mobile Phase A, 12% Mobile Phase B • 20 min: 40% Mobile Phase A, 60% Mobile Phase B • 22 min: 0% Mobile Phase A, 100% Mobile Phase B • 24 min: 0% Mobile Phase A, 100% Mobile Phase B • 25 min: 100% Mobile Phase A, 0% Mobile Phase B • 30 min: 100% Mobile Phase A, 0% Mobile Phase B • Total Run Time: 35 minutes • UV detector: 340 nm • [^18F]FSPG solution (80 μl) was mixed with o-phthaldialdehyde reagent solution (20 μl). The mixture sat for 1 min prior to the HPLC analysis.

For data set [2], the target named is T1, cystine/glutamate antiporter (Xc^−) (Homo sapiens, UniProt Q9UPY5).
T1 construct: from tissue; host or cells: Human tissues and tumours in vivo (healthy volunteers; patients with NSCLC, hepatocellular carcinoma or brain tumours)
T1 sequence (Q9UPY5 1-501): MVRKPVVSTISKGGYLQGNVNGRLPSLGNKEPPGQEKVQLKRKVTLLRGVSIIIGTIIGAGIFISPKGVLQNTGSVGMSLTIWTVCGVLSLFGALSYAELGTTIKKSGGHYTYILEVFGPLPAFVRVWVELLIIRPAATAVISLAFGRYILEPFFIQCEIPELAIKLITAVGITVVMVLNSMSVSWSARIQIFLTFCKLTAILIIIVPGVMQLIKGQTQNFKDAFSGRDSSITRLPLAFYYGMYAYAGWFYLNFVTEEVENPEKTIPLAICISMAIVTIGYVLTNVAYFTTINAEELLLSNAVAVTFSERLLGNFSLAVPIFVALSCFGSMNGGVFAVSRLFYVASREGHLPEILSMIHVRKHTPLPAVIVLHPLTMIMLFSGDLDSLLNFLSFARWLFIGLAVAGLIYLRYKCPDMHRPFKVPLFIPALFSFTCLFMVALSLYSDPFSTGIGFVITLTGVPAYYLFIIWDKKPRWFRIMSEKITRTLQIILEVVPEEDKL
T1 sequence (P08195 1-529 partner): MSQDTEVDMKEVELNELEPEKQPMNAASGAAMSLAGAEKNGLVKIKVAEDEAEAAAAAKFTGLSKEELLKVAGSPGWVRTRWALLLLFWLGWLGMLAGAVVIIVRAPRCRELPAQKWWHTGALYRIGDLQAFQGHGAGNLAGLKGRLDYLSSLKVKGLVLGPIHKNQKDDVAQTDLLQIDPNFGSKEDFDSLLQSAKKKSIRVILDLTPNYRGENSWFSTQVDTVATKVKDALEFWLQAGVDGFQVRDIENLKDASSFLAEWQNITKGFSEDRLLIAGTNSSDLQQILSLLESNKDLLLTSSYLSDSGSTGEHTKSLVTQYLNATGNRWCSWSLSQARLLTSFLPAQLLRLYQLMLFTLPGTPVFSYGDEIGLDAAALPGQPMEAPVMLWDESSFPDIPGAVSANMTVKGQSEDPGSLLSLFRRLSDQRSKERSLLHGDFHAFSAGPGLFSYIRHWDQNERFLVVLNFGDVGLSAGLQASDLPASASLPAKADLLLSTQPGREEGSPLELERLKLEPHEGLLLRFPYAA
Conditions: PET; healthy volunteers and patients with non-small cell lung cancer, hepatocellular carcinoma, brain tumors; cited from earlier work.

In the case of `N[C@@H](C[C@H](CCC[18F])C(=O)O)C(=O)O` [[^18F]FSPG, (S)-4-(3-^18F-fluoropropyl)-L-glutamic acid], the radiochemical purity maintained in data set [1] is reported as > 95%. The background uptake entry in data set [2] is “low background uptake in the brain, lung, and bowel”.
